Counter-ions that a name gives are not always drawn. Like-named read-outs stand apart in the source and are kept apart here.
Columns and labels:
[1] = system: HIV-1; test: microbe, parasite or virus in culture; conditions: read-out: HIV1 CEM: EC50 for inhibition of HIV-1 in CEM cells
Experimental: (§1) Cells were infected with HIV-1 as previously described [Balzarini et al. AIDS (1991), 5, 21–28]. Briefly, 5×10^5 cells per milliliter were infected with HIV-1 or HIV-2 at 100 CCID50 (50% cell culture infective dose) per milliliter of cell suspension. Then 100 μL of the infected cell suspension was transferred to microtiter plate wells and mixed with 100 μL of the appropriate dilutions of the test compounds. After 4 days giant cell formation was recorded microscopically in the HIV-infected cell cultures [CEM], and after 5 days the number of viable cells was determined by trypan blue staining of the HIV-infected cell cultures [MT4].
(§2) The data columns are, in order: • HIV1 MT4: EC50 in μM for inhibition of HIV-1 in MT4 cells. • HIV2 MT4: EC50 in μM for inhibition of HIV-2 in MT4 cells. • CC50 MT4: CC50 in μM for toxicity to MT-4 cells. • HIV1 CEM: EC50 in μM for inhibition of HIV-1 in CEM cells. • HIV2 CEM: EC50 in μM for inhibition of HIV-2 in CEM cells. • HIV2 CEM-TK-: EC50 in μM for inhibition of HIV-2 in CEM/TK^− cells. • CC50 CEM: CC50 in μM for toxicity to CEM cells. • EC50 MSV: EC50 in μM for inhibition of MSV • MCC MSV: Minimum cytotoxic concentration in MSV assay

[2] = system: HIV-2; test: Inhibition of HIV-2 in CEM/TK- cells; type: cell-based
Experimental: as §1, §2

[3] = system: HIV-2; test: Inhibition of HIV-2 in CEM cells (giant cell formation); type: cell-based; conditions: read-out: HIV2 CEM: EC50 for inhibition of HIV-2 in CEM cells
Experimental: as §1, §2

[4] = Table 6, mean of two or more repeat experiments
[5] = Table 6, mean of two or more repeat experiments, read-out: HIV2 CEM-TK-: EC50 for inhibition of HIV-2 in CEM/TK^− cells
[6] = CEM/TK- cells, HIV-2, read-out: HIV2 CEM-TK-: EC50 for inhibition of HIV-2 in CEM/TK- cells

Compound	EC50 [1, 4] [µM]	EC50 [2, 5] [µM]	EC50 [3, 4] [µM]	further results
O=c1ccn(C2C=CC(COP(=O)(OCC(Cl)(Cl)Cl)OCC(Cl)(Cl)Cl)O2)c(=O)[nH]1 (stereo not drawn) [Compound 562]	> 36	> 36	> 36	
COC(=O)C[C@H](NP(=O)(OC[C@@H]1C=C[C@H](n2cc(C)c(=O)[nH]c2=O)O1)Oc1ccccc1)C(=O)OC (stereo partly drawn) [Compound 1214, 2′,3′-Dideoxy-2′,3′-didehydrothymidine-5′-(phenyldimethoxyasparaginyl) phosphoramidate]	0.6			
CCCCNP(=O)(OCC1C=CC(n2cc(C)c(=O)[nH]c2=O)O1)OCC(F)(F)F (stereo not drawn) [Compound 504]	73	≥ 226	116	
Cc1cn([C@H]2C=C[C@@H](COP(=O)(O)OC(=O)CCCN)O2)c(=O)[nH]c1=O [Compound 1224, 2′,3′-Dideoxy-2′,3′-didehydrothymidine-5′(γ-aminobutylryl) phosphate ammonium salt]	1			
Cc1cn(C2C=CC(CNP(=O)(OC(C)C)OC(C)C)O2)c(=O)[nH]c1=O (stereo not drawn) [Compound 479]	> 258	> 258	> 258	
Cc1cn(C2C=CC(COP(=O)(O)NC(C(=O)O)C(C)C)O2)c(=O)[nH]c1=O (stereo not drawn) [Compound 1190, 2′,3′-dideoxy-2′,3′-didehydrothymidine 5′-(valinyl phosphate)]	0.7			
COC(=O)CCCCCNP(=O)(OCC1C=CC(n2cc(C)c(=O)[nH]c2=O)O1)Oc1ccccc1 (stereo not drawn) [Compound 1199, 2′,3′-Dideoxy-2′,3′-didehydrothymidine-5′-(phenylmethoxy-6-aminocaproyl) phosphate]	> 250			
CCCNP(=O)(OCC)OCC1C=CC(n2cc(C)c(=O)[nH]c2=O)O1 (stereo not drawn) [Compound 563]	> 268	> 268	> 268	
CCCNP(=O)(OCC1C=CC(n2cc(C)c(=O)[nH]c2=O)O1)OCC(Cl)(Cl)Cl (stereo not drawn) [Compound 401]	> 210	> 210	> 210	
CCCCCCCCCCCCNP(=O)(OCC1OC(n2cc(C)c(=O)[nH]c2=O)CC1N=[N+]=[N-])Oc1ccccc1 (stereo not drawn) [Cpd 661]				EC50 ([1]; CEM cells, HIV-1): > 7 µM; EC50 [2, 6]: > 7 µM; EC50 ([3]; CEM cells, HIV-2): > 7 µM
COC(=O)C(C)NP(=O)(OCC1C=CC(n2ccc(=O)[nH]c2=O)O1)Oc1ccccc1 (stereo not drawn) [Compound 558]	> 44	> 44	> 44	
O=c1ccn([C@H]2C=C[C@@H](CO)O2)c(=O)[nH]1 [Compound 446, reference compound]	> 95	> 95	> 95	
Cc1cn(C2C=CC(COP(=O)(O)NC(CC(C)C)C(=O)O)O2)c(=O)[nH]c1=O (stereo not drawn) [Compound 1192, 2′,3′-dideoxy-2′,3′-didehydrothymidine 5′-(leucinyl phosphate)]	1.4			
Cc1cn(C2C=CC(COP(=O)(NC(C)C(=O)Oc3ccc4ccccc4c3)Oc3ccccc3)O2)c(=O)[nH]c1=O (stereo not drawn) [Compound 1227]	< 0.08			
COC(=O)C(C)(C)NP(=O)(OCC1C=CC(n2cc(C)c(=O)[nH]c2=O)O1)Oc1ccccc1 (stereo not drawn) [Compound 1200, 2′,3′-Dideoxy-2′,3′-didehydrothymidine-5′-(phenylmethoxy-2-aminoisobutylryl) phosphate]	0.12			
Cc1cn(C2C=CC(COP(=O)(Oc3ccccc3)N3CCCC3C(=O)O)O2)c(=O)[nH]c1=O (stereo not drawn) [Compound 1194, 2′,3′-dideoxy-2′,3′-didehydrothymidine 5′-(phenylprolinyl phosphate)]	6			
CCCCCOC(=O)C(C)NP(=O)(OCC1C=CC(n2cc(C)c(=O)[nH]c2=O)O1)Oc1ccccc1 (stereo not drawn) [Compound 1218]	< 0.08			
CCCOP(=O)(OCC1C=CC(n2cc(C)c(=O)[nH]c2=O)O1)OCC(Cl)(Cl)Cl (stereo not drawn) [Compound 404]	> 209	> 209	> 209	
Cc1cn([C@H]2C=C[C@@H](COP(=O)(O)NC(Cc3ccccc3)C(=O)O)O2)c(=O)[nH]c1=O (stereo partly drawn) [Compound 1187, 2′,3′-dideoxy-2′,3′-didehydrothymidine 5′-(phenylalaninyl phosphate)]	3.5			
CCCCNP(=O)(OCC1OC(n2cc(C)c(=O)[nH]c2=O)CC1N=[N+]=[N-])Oc1ccccc1 (stereo not drawn) [Cpd 659]				EC50 ([1]; CEM cells, HIV-1): > 42 µM; EC50 [2, 6]: > 42 µM; EC50 ([3]; CEM cells, HIV-2): > 42 µM
COC(=O)C(NP(=O)(OCC1C=CC(n2cc(C)c(=O)[nH]c2=O)O1)OCC(Cl)(Cl)Cl)C(C)C (stereo not drawn) [Compound 322]	29	59	71	

Compound	EC50 [1, 4] [µM]	EC50 [2, 5] [µM]	EC50 [3, 4] [µM]	further results
Cc1cn(C2C=CC(COP(=O)(O)NCCC(=O)O)O2)c(=O)[nH]c1=O (stereo not drawn) [Compound 1216, 2′,3′-Dideoxy-2′,3′-didehydrothymidine-5′-(β-alaninyl) phosphate ammonium salt]	0.7			
CCCCCC(=O)OP(=O)(O)OC[C@@H]1C=C[C@H](n2cc(C)c(=O)[nH]c2=O)O1 [Compound 1217, 2′,3′-Dideoxy-2′,3′-didehydrothymidine-5′-(caproyl) phosphate ammonium salt]	1.4			
CCCCCCNP(=O)(OCC1OC(n2cc(C)c(=O)[nH]c2=O)CC1N=[N+]=[N-])Oc1ccccc1 (stereo not drawn) [Cpd 657]				EC50 ([1]; CEM cells, HIV-1): > 40 µM; EC50 [2, 6]: > 18 µM; EC50 ([3]; CEM cells, HIV-2): > 40 µM
COC(=O)C(Cc1c[nH]c2ccccc12)NP(=O)(OC[C@@H]1C=C[C@H](n2cc(C)c(=O)[nH]c2=O)O1)Oc1ccccc1 (stereo partly drawn) [Compound 1215, 2′,3′-Dideoxy-2′,3′-didehydrothymidine-5′-(phenylmethoxytryptophanyl) phosphoramidate]	4			
COC(=O)C(C)NP(=O)(OCC1CCC(n2cc(C)c(=O)[nH]c2=O)O1)Oc1ccccc1 (stereo not drawn) [Cpd 1225]				EC50 ([1]; CEM cells, HIV-1): 1.2 µM
COC(=O)C(C)NP(=O)(OCC1OC(n2ccc(=O)[nH]c2=O)CC1N=[N+]=[N-])Oc1ccccc1 (stereo not drawn) [Cpd 571]				EC50 ([1]; CEM cells, HIV-1): > 202 µM; EC50 [2, 6]: 117 µM; EC50 ([3]; CEM cells, HIV-2): > 202 µM
CCC(NP(=O)(OCC1C=CC(n2cc(C)c(=O)[nH]c2=O)O1)Oc1ccccc1)C(=O)OC (stereo not drawn) [Compound 1198, 2′,3′-Dideoxy-2′,3′-didehydrothymidine-5′-(phenylmethoxy-α-aminobutylryl) phosphate]	> 250			
Cc1cn(C2C=CC(COP(=O)(NC(C)C(=O)OCC3CCCCC3)Oc3ccccc3)O2)c(=O)[nH]c1=O (stereo not drawn) [Compound 1189]	0.04			
Cc1cn([C@H]2C=C[C@@H](CO)O2)c(=O)[nH]c1=O [Compound 268, reference compound]	0.24	> 100	1.2	
Cc1cn(C2C=CC(COP(=O)(NC(C)C(=O)OCCc3ccccc3)Oc3ccccc3)O2)c(=O)[nH]c1=O (stereo not drawn) [Compound 1220]	0.7			
CCCCNP(=O)(OCC1C=CC(n2cc(C)c(=O)[nH]c2=O)O1)OCC(Cl)(Cl)Cl (stereo not drawn) [Compound 402]	118	161	> 204	
COC(=O)C(C)NP(=O)(OCC1C=CC(n2ccc(=O)[nH]c2=O)O1)Oc1cccc(C(F)(F)F)c1 (stereo not drawn) [Compound 547]	> 3520	> 35	> 7	
CCOP(=O)(OCC)OCC1C=CC(n2ccc(=O)[nH]c2=O)O1 (stereo not drawn) [Compound 551]	> 58	> 58	> 58	
Cc1cn(C2C=CC(COP(=O)(NC(C)C(=O)Oc3cccc4ccccc34)Oc3ccccc3)O2)c(=O)[nH]c1=O (stereo not drawn) [Compound 1226]	< 0.08			
COC(=O)C(CCSC)NP(=O)(OCC1C=CC(n2cc(C)c(=O)[nH]c2=O)O1)OCC(Cl)(Cl)Cl (stereo not drawn) [Compound 345]	8	10	11	
Cc1cn([C@H]2C=C[C@@H](COP(=O)(N[C@@H](C)C(=O)OCC(C)(C)C)Oc3ccccc3)O2)c(=O)[nH]c1=O (stereo partly drawn) [Compound 1219]	< 0.08			
CC[C@H](C)[C@H](NP(=O)(OCC1C=CC(n2cc(C)c(=O)[nH]c2=O)O1)Oc1ccccc1)C(=O)OC (stereo partly drawn) [Compound 1186, 2′,3′-dideoxy-2′,3′-didehydrothymidino 5′-(phenylmethoxyisoleucinyl phosphate)]	5			
[N-]=[N+]=NC1CC(n2ccc(=O)[nH]c2=O)OC1CO (stereo not drawn) [Cpd 569]				EC50 ([1]; CEM cells, HIV-1): > 400 µM; EC50 [2, 6]: > 400 µM; EC50 ([3]; CEM cells, HIV-2): > 400 µM
COC(=O)CCC(NP(=O)(OCC1C=CC(n2cc(C)c(=O)[nH]c2=O)O1)Oc1ccccc1)C(=O)OC (stereo not drawn) [Compound 1196, 2′,3′-Dideoxy-2′,3′-didehydrothymidine-5′-(phenyldimethoxyglutaminyl phosphoramidate]	1.2			
Cc1cn(C2C=CC(COP(=O)(O)OCC(Cl)(Cl)Cl)O2)c(=O)[nH]c1=O (stereo not drawn) [Compound 407]		86	0.5	
COC(=O)CCNP(=O)(OCC1C=CC(n2cc(C)c(=O)[nH]c2=O)O1)Oc1ccccc1 (stereo not drawn) [Compound 1197, 2′,3′-Dideoxy-2′,3′-didhydrothymidine-5′-(phenylmethoxy-B-alaninyl) phosphate]	> 250			
